Columns and labels:
HLA-B*57:01 [1] = molecular target: T1, HLA-B*57:01 (Homo sapiens, UniProt P01889, D201E/D98Y/E176V/E187L/E204Q/E69M/E70A/G107R/I90N/K202T/L105A/L119I/N104I/N87E/Q89R/Q94S/R106L/R155S/R180L/R86G/S101N/S121V/S35A/S48A/T118I/V36M/Y140S/Y91M); parameters: method as in Illing et al., Nature 2012; details: ref Illing et al., Nature 2012, cited from earlier work; for HLA-B*57:01 previous observation by LC-MS/MS, Abacavir treated: abacavir treated cells; for HLA-B*57:01 previous observation by LC-MS/MS, Untreated: untreated cells
HLA-B*57:01 [2] = molecular target: T1, HLA-B*57:01; test: LC-MRM-MS quantitation of HLA ligands and co-purified abacavir from abacavir treated C1R.B*57:01 cells; assay type: cell-based; details: for Abacavir dependence: LC-MRM-MS detection, classification of the peptide based on abacavir dependency; for Linear regression slope: linear regression of LC-MRM-MS peptide abundance over abacavir treatment time; for Category of abacavir impact on peptide abundance in the immunopeptidome: C1R.B*57:01, 35 µM abacavir 0-16 h or constant, linear regression of normalised abundance, three replicates

Sequence	HLA-B*57:01 previous observation by LC-MS/MS, Abacavir treated (HLA-B*57:01 [1])	HLA-B*57:01 previous observation by LC-MS/MS, Untreated (HLA-B*57:01 [1])	Abacavir dependence (HLA-B*57:01 [2])	Linear regression slope (HLA-B*57:01 [2])	Category of abacavir impact on peptide abundance in the immunopeptidome (HLA-B*57:01 [2])
VSAKEKYYVW	+ (+ (< 5% FDR))	+ (+ (< 5% FDR))	Minimal	-0.0125	
LSQEQLRQW	+ (+ (< 5% FDR))	+ (+ (< 5% FDR))	Minimal	0.0083	
IVFPGSTGHI	+ (+ (< 5% FDR))		Dependent	0.0377	
VTHSVRIGF	+ (+ (< 5% FDR))	+ (+ (< 5% FDR))	Inhibited	-0.0410	
ITKTVVENI [HLA-B*57:01 ligand]	+ (+ (< 5% FDR))	+ (+ (< 5% FDR))	Minimal	-0.0036	Minimal
RVDPAKGLFYF [non-labelled HLA-B*57:01 ligand]	+ (+ (< 5% FDR))	+ (+ (< 5% FDR))	Inhibited	-0.0245	Inhibited
HSMSDPGVSY	+ (+ (< 5% FDR))	+ (+ (< 5% FDR))	Minimal	0.0044	
KTFKDVGNLL [non-labelled HLA-B*57:01 ligand]	+ (+ (< 5% FDR))	+ (+ (< 5% FDR))	Facilitated	0.0314	Facilitated
FSHRIYVAY	+ (+ (< 5% FDR))	+ (+ (< 5% FDR))	Minimal	0.0098	
IYDKFIAQL	+ (+ (< 5% FDR))	+ (+ (< 5% FDR))		-0.0106	
ASSSQIIHI	+ (+ (< 5% FDR))		Dependent	0.0446	
KSIARVLTV	# (# (> 5% FDR))		Dependent	0.0347	
KVVDVVRNL [HLA-B*57:01 ligand derived from MX1]	# (# (> 5% FDR))	+ (+ (< 5% FDR))	Inhibited	-0.0432	abacavir inhibited (abacavir inhibited (slope < −0.02))
FVKKLEHSW	+ (+ (< 5% FDR))	+ (+ (< 5% FDR))	Minimal	0.0023	
VSVKDIQAHL	+ (+ (< 5% FDR))		Dependent	0.0241	
HTIQIRQDW [HLA-B*57:01 ligand]	+ (+ (< 5% FDR))	+ (+ (< 5% FDR))	Facilitated	0.0256	Facilitated
HSTDRVVLI	# (# (> 5% FDR))		Dependent	0.0350	
RVLPPSHRVTW	+ (+ (< 5% FDR))	+ (+ (< 5% FDR))	Minimal	0.0197	
LTSELITHI [HLA-B*57:01 ligand derived from MX1]	+ (+ (< 5% FDR))		Dependent	0.0325	abacavir dependent (abacavir dependent (slope > 0.02, abundance = 0 at t = 0 in at least two of three replicates))
STIRLLTSL	+ (+ (< 5% FDR))	+ (+ (< 5% FDR))	Facilitated	0.0278	
YFDPANGKF	+ (+ (< 5% FDR))	+ (+ (< 5% FDR))		0.0159	
SAAYLPRMW	+ (+ (< 5% FDR))	+ (+ (< 5% FDR))	Minimal	-0.0194	

Sequence	HLA-B*57:01 previous observation by LC-MS/MS, Abacavir treated (HLA-B*57:01 [1])	HLA-B*57:01 previous observation by LC-MS/MS, Untreated (HLA-B*57:01 [1])	Abacavir dependence (HLA-B*57:01 [2])	Linear regression slope (HLA-B*57:01 [2])	Category of abacavir impact on peptide abundance in the immunopeptidome (HLA-B*57:01 [2])
YTDNLVRVW [HLA-B*57:01 ligand derived from RACK1]	+ (+ (< 5% FDR))	+ (+ (< 5% FDR))	Minimal	-0.0088	minimally impacted by abacavir
MTAGVDGHSW	+ (+ (< 5% FDR))	+ (+ (< 5% FDR))	Minimal	-0.0056	
IFDSKVTEI	+ (+ (< 5% FDR))	+ (+ (< 5% FDR))		-0.0096	
TTWKPLNPNSW	+ (+ (< 5% FDR))	+ (+ (< 5% FDR))	Minimal	0.0009	
GTYQDVGSLNI	+ (+ (< 5% FDR))		Dependent	0.0429	
ITNADSATRLL		+ (+ (< 5% FDR))	Inhibited	-0.0254	
GSFGKVFLV	+ (+ (< 5% FDR))		Dependent	0.0515	
TSLKSRVTI [non-labelled HLA-B*57:01 ligand]	# (# (> 5% FDR))	+ (+ (< 5% FDR))	Facilitated	0.0267	Facilitated
KVFKLQTSL [non-labelled HLA-B*57:01 ligand]	# (# (> 5% FDR))		Dependent	0.0380	Dependent
ILDPHVVLL	+ (+ (< 5% FDR))	+ (+ (< 5% FDR))		0.0062	
ASAIIIQRW	+ (+ (< 5% FDR))	+ (+ (< 5% FDR))	Minimal	0.0134	
NTVELRVKI [non-labelled HLA-B*57:01 ligand]	+ (+ (< 5% FDR))		Dependent	0.0281	Dependent
ISIHVGQAGVQI	+ (+ (< 5% FDR))		Dependent	0.0259	
KTIETSPSL [HLA-B*57:01 ligand]	# (# (> 5% FDR))				abacavir facilitated (abacavir facilitated (slope > 0.02, abundance > 0 at t = 0 in at least two of three replicates))
ITAGAHRLW	+ (+ (< 5% FDR))	+ (+ (< 5% FDR))	Minimal	0.0136	
LSSPVTKSF	+ (+ (< 5% FDR))	+ (+ (< 5% FDR))	Minimal	0.0147	minimally impacted by abacavir
RVDPDVAQHW	+ (+ (< 5% FDR))	+ (+ (< 5% FDR))	Minimal	0.0110	
KIADFGWSV	+ (+ (< 5% FDR))		Dependent	0.0283	
KTFIGTVRV	+ (+ (< 5% FDR))		Dependent	0.0503	
KSIFVFTHV	+ (+ (< 5% FDR))		Dependent	0.0498	
RTLLEDGTFKV	+ (+ (< 5% FDR))		Dependent	0.0443	

Source: publication PMC8170132, “Kinetics of Abacavir-Induced Remodelling of the Major Histocompatibility Complex Class I Peptide Repertoire” (Frontiers in Immunology, 2021)
